The text below walks through data of DBAASP.

Common to all, as to experiment: ≥ marks a high value that may be exact or a test limit, other limits are often not marked, values filed in µg/mL are converted to µM
For test [1], the system named is Candida albicans ATCC 10231.
The test system of test [2] is Candida glabrata ATCC 90030.
Test [3] concerns Aspergillus flavus PFCC 100.
The test system of test [4] is Aspergillus fumigatus Af293.
For test [5], the system named is Aspergillus niger ATCC 9029.
The subject of test [6] is Candida krusei DSM 70079.
The subject of test [7] is Enterococcus faecalis.
The subject of test [8] is Staphylococcus epidermidis.
The subject of test [9] is Staphylococcus aureus SAP 0017.
Test [10] deals with Salmonella typhimurium C610.
Test [11] deals with Pseudomonas aeruginosa H103.
Test [12] concerns Escherichia coli O111:B4.
In test [13] the test system is Staphylococcus aureus K147.
In test [14] the test system is Bacillus subtilis.
In test [15] the test system is Escherichia coli DSM 1103.
The test system of test [16] is Escherichia coli DH5alpha.
Test [17] relates to Bacillus subtilis ATCC 6633.
Test [18] concerns Micrococcus luteus DSM 1790.
Test [19] deals with Staphylococcus aureus DSM 1104.
Test [20] has as its system Kocuria rhizophila DSM 348.
The subject of test [21] is Bacillus subtilis CCT 2471.
Test [22] deals with Escherichia coli ATCC 25922.
For test [23], the system named is Staphylococcus saprophyticus.
For test [24], the system named is Staphylococcus aureus ATCC 6538.
Test [25] has as its system Staphylococcus aureus ATCC 25923.
Test [26] relates to Escherichia coli CCT 1371.
Test [27] has as its system Enterobacter cloacae ATCC 23355.
Test [28] deals with Escherichia coli CIP 54.8T.
The test system of test [29] is Bacillus megaterium CIP 51.17.
For test [30], the system named is Candida krusei ATCC 28870.
In test [31] the test system is Saccharomyces cerevisiae PTCC 5052.
The test system of test [32] is Aspergillus niger ATCC 9142.
In test [33] the test system is Pseudomonas aeruginosa ATCC 27853.
In test [34] the test system is Cryptococcus neoformans ATCC 2517.
The test system of test [35] is Aspergillus fumigatus ATCC 1022.
The test system of test [36] is Enterococcus faecalis ATCC 29212.
Test [37] deals with Microsporum canis PTCC 5069.
The subject of test [38] is Trichophyton mentagrophytes ATCC 32510.
Test [39] deals with Aspergillus flavus ATCC 24109.
The subject of test [40] is Bacillus subtilis ATCC 6051.

Values after ≈ are worked out from the molar mass of the structure shown.

The MIC is the lowest concentration found to suppress growth. A high value points to a need for much substance.

As to `CC[C@H](C)[C@H](NC(=O)[C@@H](NC(=O)[C@H](CCCCN)NC(=O)[C@H](CC(=O)O)NC(=O)[C@H](C)NC(=O)[C@H](CCC(N)=O)NC(=O)[C@H](CCCN=C(N)N)NC(=O)[C@@H](NC(=O)[C@H](CO)NC(=O)CNC(=O)[C@H](CCCN=C(N)N)NC(=O)[C@H](CCC(=O)O)NC(=O)[C@H](Cc1c[nH]c2ccccc12)NC(=O)[C@@H](NC(=O)[C@H](CS)NC(=O)[C@H](CC(C)C)NC(=O)[C@H](CCC(=O)O)NC(=O)[C@H](CCC(N)=O)NC(=O)[C@H](CCCCN)NC(=O)[C@H](CO)NC(=O)[C@@H](NC(=O)[C@H](CCCN=C(N)N)NC(=O)CN)[C@@H](C)O)[C@@H](C)O)C(C)C)[C@@H](C)O)C(=O)N[C@@H](C)C(=O)NCC(=O)O` [GRTSKQELCTWERGSVRQADKTIAG], the MIC in [1] turned out to be 21.6 µM (≈ 60 µg/mL); in test [2], 19.8 µM (≈ 55 µg/mL); in test [3], 23.4 µM (≈ 65 µg/mL); in test [4] it was 20.7 µM (≈ 57.5 µg/mL); in [5] it was 22.5 µM (≈ 62.5 µg/mL); in test [6], 20.7 µM (≈ 57.5 µg/mL).
On to `CC[C@H](C)[C@H](NC(=O)[C@H](C)NC(=O)[C@@H]1CCCN1C(=O)CNC(=O)[C@H](C)NC(=O)[C@@H](NC(=O)[C@H](CCCCN)NC(=O)[C@H](CC(C)C)NC(=O)CNC(=O)[C@H](CO)NC(=O)[C@H](CC(C)C)NC(=O)[C@@H](NC(=O)[C@H](CCCN=C(N)N)NC(=O)[C@H](CCCN=C(N)N)NC(=O)[C@H](Cc1c[nH]c2ccccc12)NC(=O)[C@H](Cc1c[nH]c2ccccc12)NC(=O)[C@H](CCCCN)NC(=O)[C@@H](N)CCCCN)C(C)C)[C@@H](C)O)C(=O)N[C@@H](CCC(N)=O)C(=O)N[C@@H](CO)C(=O)N[C@H](C(=O)N[C@@H](CC(C)C)C(=O)N[C@@H](CC(N)=O)C(=O)N[C@@H](CCCCN)C(=O)O)C(C)C` [KKWWRRVLSGLKTAGPAIQSVLNK], for which the MIC in test [7] was at least 46.8 µM; in [8], at least 46.8 µM; in test [9], at least 46.8 µM; in test [10], 5.85 µM (≈ 16 µg/mL); in test [11] it was 23.4 µM (≈ 64 µg/mL); in test [12], 5.85 µM (≈ 16 µg/mL). Also, the MIC in test [13] and in [14] was at least 46.8 µM each time.
Regarding `CC(C)C[C@H](NC(=O)[C@H](C)NC(=O)[C@H](CCCCN)NC(=O)[C@H](CC(C)C)NC(=O)[C@H](C)NC(=O)[C@H](CC(C)C)NC(=O)[C@H](CCCCN)NC(=O)[C@H](CC(C)C)NC(=O)[C@H](C)NC(=O)[C@H](CC(C)C)NC(=O)[C@@H](N)CCCCN)C(=O)N[C@@H](CCCCN)C(=O)N[C@@H](C)C(=O)N[C@@H](C)C(=O)N[C@@H](CC(C)C)C(=O)N[C@@H](CCCCN)C(=O)N[C@@H](CC(C)C)C(=O)N[C@@H](C)C(=O)O` [KLALKLALKALKAALKLA], the MIC in [15], in [16], in test [17], in test [18], in test [19] and in [20] was at least 68.2 µM throughout.
Regarding `CC[C@H](C)[C@H](NC(=O)CNC(=O)[C@H](CCSC)NC(=O)[C@H](CC(C)C)NC(=O)[C@H](CCCCN)NC(=O)[C@@H](N)CC(C)C)C(=O)N[C@H](C(=O)N[C@@H](CCCCN)C(=O)N[C@@H](CCCCN)C(=O)N[C@H](C(=O)N[C@@H](CC(C)C)C(=O)NCC(=O)N[C@@H](C)C(=O)N[C@@H](CC(C)C)C(N)=O)C(C)C)C(C)C` [LKLMGIVKKVLGAL], the MIC was at least 68 µM in test [21]; 7 µM (≈ 10.4 µg/mL) in test [22]; 3 µM (≈ 4.45 µg/mL) in [23]; at least 34 µM in test [8]; 34 µM (≈ 50.4 µg/mL) in test [24]; 7 µM (≈ 10.4 µg/mL) in test [25]. The MIC in test [26] and in test [27] was 17 µM (≈ 25.2 µg/mL) in each case.
On to `CC[C@H](C)[C@H](NC(=O)[C@H](CCCN=C(N)N)NC(=O)[C@H](CC(N)=O)NC(=O)[C@H](CC(C)C)NC(=O)[C@H](Cc1ccccc1)NC(=O)[C@H](CCCN=C(N)N)NC(=O)[C@H](Cc1ccccc1)NC(=O)[C@H](CCCN=C(N)N)NC(=O)[C@@H](NC(=O)[C@H](CC(C)C)NC(=O)[C@@H](NC(=O)[C@@H](N)C(C)C)[C@@H](C)CC)[C@@H](C)O)C(=O)N[C@H](C(=O)N[C@@H](CCC(=O)O)C(=O)N1CCC[C@H]1C(=O)N[C@@H](CC(C)C)C(=O)N[C@@H](CC(C)C)C(=O)N[C@@H](CCCCN)C(=O)N[C@@H](CCCCN)C(=O)N[C@@H](C)C(=O)O)C(C)C` [VILTRFRFLNRIVEPLLKKA], for which the results for the MIC in test [28] and in test [29] were at least 35.4 µM and at least 100 µM, respectively.
`CC[C@H](C)[C@H](NC(=O)[C@H](CCCCN)NC(=O)[C@H](Cc1ccccc1)NC(=O)[C@@H](N)Cc1c[nH]c2ccccc12)C(=O)N[C@H](C(=O)N[C@@H](CCCCN)C(=O)N[C@@H](CCCCN)C(=O)O)[C@@H](C)CC` [WFKIIKK]: the MIC is at least 33.3 µM in test [30]; over 1040 µM in test [22]; 16.6 µM (≈ 16 µg/mL) in test [1]; 16.6 µM (≈ 16 µg/mL) in test [31]; at least 130 µM in [32]; over 1040 µM in test [33]. The minimal inhibitory concentration (MIC) in [2] is at least 130 µM; in test [25], over 1040 µM; in [34], at least 1040 µM; in test [35], 7.59 µM (≈ 7.3 µg/mL); in [36], over 1040 µM; in [37], at least 130 µM. The values for the MIC in [38], in test [39] and in [40] were at least 65 µM, at least 1040 µM and at least 1040 µM, respectively.
